Common to all, as to assay: NCI-60 cell line screen, 48 h
Experiment [1] concerns IGROV1 ovarian.
For experiment [2], the system named is M14 melanoma.
In experiment [3] the test system is MOLT-4 leukemia.
For experiment [4], the system named is NCI/ADR-RES ovarian.
Experiment [5] deals with OVCAR-4 ovarian.
In experiment [6] the test system is OVCAR-5 ovarian.
The test system of experiment [7] is PC-3 prostate.
The test system of experiment [8] is SF-295 CNS.
The test system of experiment [9] is SR leukemia.
Experiment [10] relates to TK-10 renal.

This is an account of results in PubChem BioAssay (NCI).

Molecules are shown by their SMILES. Several values for one entry are separate records, joined by “and”; a condition that tells them apart may be missing. Identical values can stand only once.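 Step 1: Grow cells in 96-well plates. Step 2: Expose to compound for 48 hours at 5 concentrations. Step 3: Interpolate endpoints linearly; if unreached, use highest concentration. GI50 marks 50% less growth. TGI denotes the concentration required for complete inhibition of growth.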

Turning to `COc1c(OC(C)C)cc2cc(O)c(C(=O)NC3Cc4ccc(c(Cl)n4)O[C@@H]4C=C5C#C/C(=C\C#CC6OC56C4OC4CC(C)(O)C(O)C(C)O4)C(OC4CC(O)C(N(C)C)C(C)O4)COC3=O)cc2c1OC` (stereo partly specified), the GI50 is > 36.3 µM and 37.5 µg/mL in experiment [1]; 32.7 µM and 2.8 µg/mL in experiment [2]; 0.00979 µg/mL in experiment [3]; > 36.3 µM and 30.8 µg/mL in experiment [5]; > 36.3 µM and 4.02 µg/mL in [6]; 9.97 µM and 0.523 µg/mL in experiment [8]. Further, the GI50 in [9] is 8.27 µM and 0.0174 µg/mL; in experiment [10], > 36.3 µM and 37.5 µg/mL. Besides, the TGI in experiment [1] is > 36.3 µM and 37.5 µg/mL; in [2] it was > 36.3 µM and 21.4 µg/mL; in experiment [3], 14.2 µg/mL; in [4], over 36.3 µM; in experiment [5], > 36.3 µM and 37.5 µg/mL; in experiment [6], > 36.3 µM and 27.5 µg/mL. The TGI in [7] is over 36.3 µM; in experiment [8] it was > 36.3 µM and 6.24 µg/mL; in experiment [9] it was > 36.3 µM and 0.746 µg/mL; in experiment [10] it was > 36.3 µM and 37.5 µg/mL.
As for `Cc1ccc(-n2c(-c3cc4c([nH]c5ccccc54)c(-c4cccc(O)c4)n3)n[nH]c2=S)cc1`, the GI50 in [1] is 0.704 µM; in experiment [2], 1.1 µM; in experiment [3] it was 0.908 µM; in [4] it was 4.14 µM; in experiment [5], 2.23 µM; in [6] it was 3.73 µM. Also, the GI50 in experiment [7] is 2.48 µM; in experiment [8] it was 1.11 µM; in experiment [9] it was 0.443 µM; in experiment [10], 3.68 µM. Moreover, the TGI in experiment [1] was found to be 4.74 µM; in experiment [2] it was 3.71 µM; in experiment [3] it was 4.76 µM; in experiment [4], 24.1 µM; in experiment [5], 11 µM; in experiment [6], 17.1 µM. Besides, the TGI in experiment [7] was 42.4 µM; in experiment [8], 3.12 µM; in experiment [9], 2.07 µM; in experiment [10], 16.2 µM.
On to `COc1ccc(-c2[nH]c3ccccc3c2/C=C(\C#N)S(=O)(=O)c2ccccc2)cc1`, for which the GI50 is 3.44 µM in [1]; 0.383 µM in experiment [2]; 0.666 µM in experiment [3]; 0.427 µM in experiment [4]; 0.559 µM in [5]; 1.84 µM in experiment [6]. Moreover, the GI50 in [7] is 0.533 µM; in experiment [8], 0.487 µM; in experiment [9], 0.344 µM; in experiment [10] it was 3.65 µM. Also, the TGI in [2] is 14.4 µM; in experiment [3] it was 8.39 µM; in experiment [4], over 25.8 µM; in [5], over 31.8 µM; in [6], over 100 µM; in experiment [7], over 68.8 µM. The TGI was 4.9 µM in experiment [9] and over 100 µM in [10].
Regarding `Nc1nc2ccccc2c2c1S(=O)(=O)c1ccc(Cl)cc1C2=O`, the GI50 in experiment [1] is 1.7 µM; in experiment [2] it was 2.45 µM; in experiment [3], 1.42 µM; in experiment [4] it was 1.46 µM; in [5], 1.46 µM; in experiment [6], 1.42 µM. Besides, the GI50 in [7] is 0.89 µM; in experiment [8], 2.22 µM; in [9] it was 0.917 µM; in experiment [10] it was 1.93 µM. The TGI in [1] is over 50 µM; in experiment [2], 35.4 µM; in experiment [3] it was 8.86 µM; in [4] it was 6.27 µM; in experiment [5], 10.8 µM; in experiment [6], 4.62 µM. Besides, the TGI in experiment [7], in [8], in experiment [9] and in [10] was over 50 µM throughout.
On to `C#CCNC(=O)NC(CCCCNC(=O)OCc1ccccc1)C(=O)OCc1ccccc1` (stereo unspecified), for which the TGI in [1] is over 100 µM; in experiment [2] it was 58.4 µM; in [3] it was 85.7 µM; in experiment [4], over 100 µM; in [5], over 100 µM; in experiment [6], over 100 µM. In addition, the TGI in [7] is over 100 µM; in experiment [8] it was over 100 µM; in experiment [9], over 100 µM; in experiment [10] it was over 93 µM.
Turning to `N#Cc1cccc(Nc2ncc(-c3ccccc3)o2)c1`, the GI50 in experiment [1] is 11.7 µM; in experiment [2] it was over 25 µM; in experiment [3], over 25 µM; in experiment [4], 19.2 µM; in experiment [5] it was 10.9 µM; in experiment [6], 16.4 µM. The GI50 in [7] is 15.1 µM; in experiment [8], 9.99 µM; in [9], 11.8 µM; in experiment [10], 16.5 µM. Further, the TGI in experiment [1], in experiment [2], in [3], in [4], in experiment [5] and in experiment [6] was over 25 µM each time. The TGI in experiment [7], in experiment [8], in [9] and in experiment [10] was over 25 µM in each case.
As to `O=c1[nH]c(=S)[nH]c(-c2ccccc2)c1Cc1c(O)ccc2ccccc12`, the TGI in experiment [1] was over 100 µM; in experiment [2], 78.5 µM; in experiment [3], over 100 µM; in [4] it was over 100 µM; in experiment [5], over 100 µM; in experiment [6], over 100 µM. Besides, the TGI in experiment [7] is over 100 µM; in experiment [8], over 100 µM; in [9], over 100 µM; in experiment [10], 59.3 µM.
With `N#Cc1c(NC(=O)c2ccccc2F)sc2c1CCCC2`, the GI50 was over 25 µM in experiment [1]; over 25 µM in [2]; over 25 µM in [3]; 11.5 µM in experiment [4]; over 25 µM in [5]; over 25 µM in [6]. The GI50 in experiment [7], in experiment [8], in experiment [9] and in [10] was over 25 µM in each case. The TGI in [1], in [2], in experiment [3], in experiment [4], in [5] and in experiment [6] was over 25 µM throughout. Further, the TGI in experiment [7], in experiment [8], in [9] and in experiment [10] was over 25 µM throughout.
